For one experiment, the target named is Cytochrome P450 3A4 (Homo sapiens, UniProt P08684).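 Also: CYP3A4 tested as one member of a cytochrome P450 panel screen.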
The target of another experiment is Cytochrome P450 2C9 (Homo sapiens, UniProt P11712).
The target in experiment [1] is T1, Heat shock factor protein 1 (Mus musculus, UniProt P38532).
T1 sequence (P38532 whole entry): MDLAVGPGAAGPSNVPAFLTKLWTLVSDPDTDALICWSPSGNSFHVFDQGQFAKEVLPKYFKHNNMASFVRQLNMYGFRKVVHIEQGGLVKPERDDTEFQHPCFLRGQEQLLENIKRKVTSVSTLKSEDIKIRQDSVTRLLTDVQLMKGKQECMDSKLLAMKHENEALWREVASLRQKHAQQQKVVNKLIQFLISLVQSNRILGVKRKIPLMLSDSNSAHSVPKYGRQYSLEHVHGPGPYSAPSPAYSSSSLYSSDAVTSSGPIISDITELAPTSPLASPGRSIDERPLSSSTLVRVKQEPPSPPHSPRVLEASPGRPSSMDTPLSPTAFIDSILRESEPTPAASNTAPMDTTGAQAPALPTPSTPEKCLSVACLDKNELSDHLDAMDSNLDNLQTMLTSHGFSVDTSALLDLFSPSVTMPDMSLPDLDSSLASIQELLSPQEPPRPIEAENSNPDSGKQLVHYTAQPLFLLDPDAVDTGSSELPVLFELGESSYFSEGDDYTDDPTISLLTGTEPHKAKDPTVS
Kind of experiment: HSF1 potentiators in luciferase reporter cells, confirmation, cell-based, NIH3T3, luminescence, dose retest (AID 435004).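 Also: stress induced by proteasome inhibitor MG132 added 30 min after compound; luciferase reporter driven by HSF1 response element in NIH3T3 cells; actives raise luminescence as potentiators of the MG132 stress response.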 In kind it is functional. (A reporter such as luciferase makes a cellular process visible.)

Experiment [2] deals with T2, Zinc finger protein mex-5 (Caenorhabditis elegans, UniProt Q9XUB2).
T2 sequence (Q9XUB2 whole entry): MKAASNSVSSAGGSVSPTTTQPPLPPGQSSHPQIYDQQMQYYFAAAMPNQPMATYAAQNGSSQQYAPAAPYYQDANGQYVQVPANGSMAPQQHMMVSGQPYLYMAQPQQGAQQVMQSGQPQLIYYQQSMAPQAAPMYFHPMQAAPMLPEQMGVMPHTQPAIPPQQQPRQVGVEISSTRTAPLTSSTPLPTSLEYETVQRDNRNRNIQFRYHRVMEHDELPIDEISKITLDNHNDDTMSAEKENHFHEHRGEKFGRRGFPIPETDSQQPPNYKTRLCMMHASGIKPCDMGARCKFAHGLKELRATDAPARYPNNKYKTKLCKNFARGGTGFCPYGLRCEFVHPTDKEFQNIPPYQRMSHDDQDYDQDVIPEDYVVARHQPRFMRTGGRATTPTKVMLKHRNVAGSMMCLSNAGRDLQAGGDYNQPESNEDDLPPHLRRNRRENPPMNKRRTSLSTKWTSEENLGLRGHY
Kind of experiment: MEX-5/TCR-2 RNA interaction inhibitors, dose response, biochemical, C. elegans, fluorescence polarization (AID 1960).

The target in experiment [3] is T3, RNA-binding protein pos-1 (Caenorhabditis elegans, UniProt G5EF15).
T3 sequence (G5EF15 whole entry): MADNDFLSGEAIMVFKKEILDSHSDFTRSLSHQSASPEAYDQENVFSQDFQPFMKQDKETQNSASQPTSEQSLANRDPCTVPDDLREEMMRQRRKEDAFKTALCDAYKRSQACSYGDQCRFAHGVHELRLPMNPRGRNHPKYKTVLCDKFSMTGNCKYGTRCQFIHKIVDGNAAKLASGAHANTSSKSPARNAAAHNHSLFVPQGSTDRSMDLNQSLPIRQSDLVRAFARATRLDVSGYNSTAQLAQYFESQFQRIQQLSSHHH
Kind of experiment: inhibitors of POS-1/mex-3 RNA binding, dose response, biochemical, fluorescence polarization (AID 1964).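 Also: purified POS-1 fused to maltose binding protein made in E. coli; potency of compounds blocking POS-1 binding to fluorescent RNA.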 Background: Polarisation of emitted light reports the rotation of a fluorescent probe.

The next experiment relates to Streptococcus. Kind of experiment: Group A Streptococcus viability loss, dose response, counter-screen for streptokinase expression inhibitor project, luminescence, BacTiterGlo (AID 1915).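 Also: potency for reduction of bacterial viability or growth.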 In kind it is functional, organism-based. (Counterscreens check selectivity or assay interference.)
In a further experiment the target is T4, Streptokinase A (Streptococcus pyogenes serotype M1, UniProt P10520).
T4 sequence (P10520 whole entry): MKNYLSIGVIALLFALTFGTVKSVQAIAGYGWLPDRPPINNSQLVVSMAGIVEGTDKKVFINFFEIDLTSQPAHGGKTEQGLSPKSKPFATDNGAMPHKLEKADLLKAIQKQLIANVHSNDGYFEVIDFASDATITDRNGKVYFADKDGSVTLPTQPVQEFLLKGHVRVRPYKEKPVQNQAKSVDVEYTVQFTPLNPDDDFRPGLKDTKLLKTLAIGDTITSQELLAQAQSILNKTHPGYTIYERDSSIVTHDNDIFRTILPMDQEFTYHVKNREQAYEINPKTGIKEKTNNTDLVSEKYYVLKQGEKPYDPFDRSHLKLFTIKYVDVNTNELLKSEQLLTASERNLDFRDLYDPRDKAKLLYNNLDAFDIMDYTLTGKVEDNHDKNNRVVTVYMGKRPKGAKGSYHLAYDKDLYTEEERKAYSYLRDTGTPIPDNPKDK
Kind of experiment: S. pyogenes streptokinase expression inhibitors, potency, dose response, plasminogen activation absorbance, OD405 (AID 1914).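 Also: secreted streptokinase activity via plasminogen activation per viability signal from cell pellet.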 In kind it is functional, Streptococcus pyogenes M1 GAS.

Experiment [4] has as its system Streptococcus sp. 'group A'. Kind of experiment: growth inhibition of control SK(-) GAS strain, dose response, counter-screen for streptokinase expression inhibitor project, luminescence, kanamycin, BacTiterGlo, confirmation (AID 1900). In kind it is functional, organism-based.
The target in another experiment is T5, Cytochrome P450 1A2 (Homo sapiens, UniProt P05177).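 Also: PubChem cytochrome P450 panel assay, CYP1A2 panel member.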
T5 sequence (P05177 whole entry): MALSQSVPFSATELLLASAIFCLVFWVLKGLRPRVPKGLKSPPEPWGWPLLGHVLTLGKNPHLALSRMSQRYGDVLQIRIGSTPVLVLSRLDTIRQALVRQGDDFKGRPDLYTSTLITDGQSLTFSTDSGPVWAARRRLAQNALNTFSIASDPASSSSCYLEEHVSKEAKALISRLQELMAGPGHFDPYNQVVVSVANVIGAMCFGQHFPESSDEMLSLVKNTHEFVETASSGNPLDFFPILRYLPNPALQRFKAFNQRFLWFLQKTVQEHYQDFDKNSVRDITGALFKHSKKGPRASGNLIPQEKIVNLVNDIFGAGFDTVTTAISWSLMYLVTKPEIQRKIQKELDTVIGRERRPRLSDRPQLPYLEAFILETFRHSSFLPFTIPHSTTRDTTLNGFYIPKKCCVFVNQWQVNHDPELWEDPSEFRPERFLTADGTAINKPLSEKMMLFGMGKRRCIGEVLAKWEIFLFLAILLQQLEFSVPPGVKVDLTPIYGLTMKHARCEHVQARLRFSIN

In the next experiment the target is Cytochrome P450 2C19 (Homo sapiens, UniProt P33261). Kind of experiment: Cytochrome panel assay with activity outcomes. Panel member name: p450-cyp2c19 Compounds with AC50 equal or less than 10 uM are considered active. In kind it is functional. The note with it: read-out: AC50.
Chain of Cytochrome P450 2C19 (P33261 whole entry): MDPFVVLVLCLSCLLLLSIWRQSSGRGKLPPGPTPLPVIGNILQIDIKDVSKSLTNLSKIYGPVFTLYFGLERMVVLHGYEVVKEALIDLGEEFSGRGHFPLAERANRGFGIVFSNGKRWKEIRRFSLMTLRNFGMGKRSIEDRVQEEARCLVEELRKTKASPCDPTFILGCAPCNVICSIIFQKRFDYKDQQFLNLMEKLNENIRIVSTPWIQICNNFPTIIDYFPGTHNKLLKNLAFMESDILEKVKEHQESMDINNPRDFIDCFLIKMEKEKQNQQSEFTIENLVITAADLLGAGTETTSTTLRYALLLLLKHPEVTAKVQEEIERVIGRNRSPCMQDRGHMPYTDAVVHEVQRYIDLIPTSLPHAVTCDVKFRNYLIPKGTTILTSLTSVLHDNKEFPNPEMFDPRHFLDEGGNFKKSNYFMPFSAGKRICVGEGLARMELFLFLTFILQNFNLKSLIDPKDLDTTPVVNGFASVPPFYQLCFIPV

Our source for the AC50 and EC50 values is ChEMBL document CHEMBL1201862, “PubChem BioAssay data set” (2004).

The source made the active and inactive calls. Where only a bound is given, the exact number is not on record here.

Chain of Cytochrome P450 3A4 (P08684 whole entry): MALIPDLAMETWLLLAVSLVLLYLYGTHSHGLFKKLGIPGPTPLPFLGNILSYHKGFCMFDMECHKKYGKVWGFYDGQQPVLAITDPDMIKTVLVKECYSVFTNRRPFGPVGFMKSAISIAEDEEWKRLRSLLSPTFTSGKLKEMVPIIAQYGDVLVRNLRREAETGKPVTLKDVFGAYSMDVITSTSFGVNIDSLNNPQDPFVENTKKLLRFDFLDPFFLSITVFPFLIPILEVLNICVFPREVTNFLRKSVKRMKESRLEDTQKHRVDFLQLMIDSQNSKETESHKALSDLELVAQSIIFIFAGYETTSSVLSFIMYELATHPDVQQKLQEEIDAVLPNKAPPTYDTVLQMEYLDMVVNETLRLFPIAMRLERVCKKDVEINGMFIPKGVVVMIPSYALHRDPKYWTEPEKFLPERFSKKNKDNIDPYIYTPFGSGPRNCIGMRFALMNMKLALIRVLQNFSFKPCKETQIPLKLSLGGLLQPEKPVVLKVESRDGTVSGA
Chain of Cytochrome P450 2C9 (P11712 whole entry): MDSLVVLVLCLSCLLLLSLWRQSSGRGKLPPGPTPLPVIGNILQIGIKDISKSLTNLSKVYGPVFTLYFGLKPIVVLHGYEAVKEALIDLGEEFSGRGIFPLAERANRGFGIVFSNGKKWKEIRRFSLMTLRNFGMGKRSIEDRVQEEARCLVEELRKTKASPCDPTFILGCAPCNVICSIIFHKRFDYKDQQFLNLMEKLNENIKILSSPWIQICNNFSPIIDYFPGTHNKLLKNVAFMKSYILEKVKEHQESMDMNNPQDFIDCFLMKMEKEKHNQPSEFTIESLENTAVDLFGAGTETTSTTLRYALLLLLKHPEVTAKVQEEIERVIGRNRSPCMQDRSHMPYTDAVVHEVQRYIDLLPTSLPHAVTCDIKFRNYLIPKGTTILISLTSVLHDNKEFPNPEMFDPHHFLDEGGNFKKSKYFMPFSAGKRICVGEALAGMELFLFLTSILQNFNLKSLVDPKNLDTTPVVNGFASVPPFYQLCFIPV

The term AC50 denotes the concentration giving half of the maximal activity seen. Take `O=c1c(-c2ccc(F)c(F)c2)nc2cncnc2n1C1CC1`: the AC50 on Cytochrome P450 3A4 is 12.6 µM (inconclusive). Take `Cc1ccc(C(c2nnnn2CC2CCCO2)N2CCN(C(=O)c3ccco3)CC2)cc1` (stereo not given): at Cytochrome P450 2C9, the AC50 was 25.1 µM (inconclusive). For orientation: EC50 means the concentration giving half of the maximal effect. For `COC(=O)c1cc2c(ccn2-c2ccc(F)cc2)n1Cc1ccc(C#N)cc1`, the EC50 in experiment [1] is > 260 µM (inactive). For `Cc1cc(C)c(S(=O)(=O)N2CCCC(C(=O)NCCC3=CCCCC3)C2)c(C)c1` (stereo not given), the EC50 in [1] is > 260 µM (inactive).

For the compound `CC(C)N1CCc2c(sc(NC(=O)c3ccc(S(=O)(=O)N(C)CC4CCCO4)cc3)c2C(N)=O)C1` (stereo not given), the EC50 is > 300 µM (not active) in experiment [2]; 203 µM (active) in [3]; > 150 µM (not active) in the experiment on Streptococcus; > 150 µM (not active) on Streptokinase A; > 150 µM (not active) in [4].

With `O=C(c1cc(C(F)(F)F)cc(C(F)(F)F)c1)N1CCC2(CC1)CN(Cc1ccncc1)C2`, the AC50 is 20 µM (inconclusive) on Cytochrome P450 1A2 and 15.8 µM (inconclusive) on Cytochrome P450 3A4. With `O=C(NNC(=O)c1ccccc1[N+](=O)[O-])c1csc(N2CCOCC2)n1`, the concentration for a half-maximal effect (EC50) in [2] was 0.731 µM (active); in experiment [3], 84.9 µM (active). Turning to `C=CCN1C(=O)NC(=O)/C(=C/C=C/Nc2ccccc2)C1=O`, the EC50 in [2] is > 300 µM (inconclusive); in experiment [3], > 300 µM (not active).

On to `CC(=C\c1ccco1)/C=C1/SC(=S)N(CC(=O)O)C1=O`, for which the EC50 in [2] and in [3] was > 300 µM (not active) in each case.

Take `COc1cc(C(=O)NC(c2ccccc2)c2ccccc2)cc(OC)c1C`: the EC50 in experiment [2] and in experiment [3] was > 300 µM (not active) throughout. Regarding `COc1ccc(C2Nc3ccccc3C(=O)N2Cc2ccco2)cc1COc1ccc(F)cc1` (stereo not given), the EC50 in experiment [1] is > 260 µM (inactive). On to `Cn1cc(-c2nc3cnc(N4CCNCC4)nc3n(-c3ccccc3)c2=O)c2ccccc21`, for which the AC50 on Cytochrome P450 3A4 is 20 µM (inconclusive). With `COc1ccc(N2CCN(Cc3nc4c(c(=O)n(C)c(=O)n4C)n3CC(C)=O)CC2)cc1`, the AC50 on Cytochrome P450 2C9 was 28.2 µM (inconclusive). For the compound `COc1ccc(Nc2nnc(-c3ccc(N4CCOCC4)c([N+](=O)[O-])c3)c3ccccc23)cc1`, the AC50 is 15.8 µM (inconclusive) on Cytochrome P450 2C19 and 7.94 µM (inconclusive) at Cytochrome P450 3A4. Consider `N#CCc1c(C#N)c(N)nc(N2CCN(S(=O)(=O)c3ccccc3F)CC2)c1C#N`, for which the EC50 in [1] was > 260 µM (inactive). Turning to `Cc1c(Nc2cc(N3CCCC(C)C3)c3nonc3c2[N+](=O)[O-])c(=O)n(-c2ccccc2)n1C` (stereo not given), the AC50 on Cytochrome P450 2C9 is 2.51 µM (inconclusive). With `c1ccc(Nc2c(-c3ccco3)nc3ccccn23)cc1`, in experiment [1], the EC50 was 151 µM (active). For `C[C@H]1O[C@@H](CC(=O)O)Cc2c(O)c3c(c(O)c21)C(=O)C=C(C1=CC(=O)c2c(O)c4c(c(O)c2C1=O)C[C@H](CC(=O)O)O[C@@H]4C)C3=O`, the AC50 at Cytochrome P450 2C9 was 7.94 µM (inconclusive). As for `O=C(O)CN1C(=O)/C(=C/c2ccccc2Br)Oc2ccccc21`, in experiment [1], the EC50 was > 260 µM (inactive). Turning to `COc1ccc(CCN2C(=O)NC(=O)/C(=C\Nc3ccc(NC(C)=O)cc3)C2=O)cc1OC`, the EC50 in experiment [2] and in experiment [3] was > 300 µM (not active) each time. On to `C[C@H]1COC(=O)[C@H](Cc2ccccc2)NC(=O)[C@@H](C)COC(=O)[C@H](Cc2ccccc2)NC1=O`, for which the AC50 at Cytochrome P450 3A4 is 3.98 µM (inconclusive). Consider `COc1ccc(S(=O)(=O)Nc2ccccc2C(F)(F)F)cc1`, for which the EC50 in experiment [1] is > 260 µM (inactive). As to `COC(=O)C1=C(C)N(c2ccc(Cl)cc2)/C(=C/c2cccs2)C1=O`, the EC50 in experiment [2] and in [3] was > 300 µM (not active) in each case.

For the compound `CCOC(=O)C1CCN(C(=O)c2ccc3c(Cl)c4c(nc3c2)CCCC4)CC1`, the EC50 in experiment [1] was 15.8 µM (active). Turning to `O=C(Nc1cccn2ncnc12)C(F)(F)F`, the EC50 in experiment [1] is > 260 µM (inactive). For `CN1CC[C@@]2(CCCN(C(=O)c3ccncc3)C2)C1`, the AC50 on Cytochrome P450 3A4 was 31.6 µM (inconclusive). `CC1(C)Oc2cc(N)c([N+](=O)[O-])cc2O1`: the AC50 at Cytochrome P450 2C9 was 35.5 µM (inconclusive). With `O=C(Cc1ccccc1)Nc1ccc(N2CCOCC2)cc1N1CCOCC1`, the EC50 in [2] and in experiment [3] was > 300 µM (not active) in each case.

Consider `CCN(CC)CCN1C(=O)C(O)=C(C(=O)c2cc3cccc(OC)c3o2)C1c1ccc(F)cc1` (stereo not given), for which the EC50 in experiment [2] and in [3] was > 300 µM (not active) throughout. On to `CCCCN1C(=O)NC(=O)/C(=C\NCCN2CCCCC2)C1=O`, for which the AC50 at Cytochrome P450 3A4 was 20 µM (inconclusive). Consider `Cc1ccc2c(c1)C1C=CCC1C(C(=O)NCCCN1CCOCC1)N2` (stereo not given), for which the EC50 in [2] and in experiment [3] was > 300 µM (not active) each time. In the case of `Cc1nn(-c2ccccc2)c2sc(C(=O)N(Cc3ccco3)C(C)C(=O)NC(C)(C)C)cc12` (stereo not given), in [1], the EC50 was > 260 µM (inactive). Take `COc1ccc2c(c1)c(C(=O)CN1CCCCC1)c(C)n2C`: the EC50 in [1] was > 260 µM (inactive). In the case of `Cc1nc2ncnn2c(C)c1CCC(=O)NCc1ccccc1`, at Cytochrome P450 3A4, the AC50 was 17.8 µM (inconclusive). With `CN(C)c1ccc(CNC(=O)c2ccc(CNc3c(N4CCCCC4)c(=O)c3=O)cc2)cc1`, in experiment [1], the EC50 was > 260 µM (inactive).

With `Cc1cc(/C=N/n2cnnc2)c(C)n1-c1cccc(C(=O)O)c1`, the EC50 in experiment [2] and in experiment [3] was > 300 µM (not active) throughout.

In the case of `O=C(c1[nH]o[n+](=O)c1C(=O)c1csc2ccccc12)c1csc2ccccc12`, the AC50 at Cytochrome P450 3A4 is 3.16 µM (inconclusive).

For `O=C(O)c1cc2cc(Cc3cccnc3)ccc2o1`, the AC50 on Cytochrome P450 3A4 is 25.1 µM (inconclusive). On the same count and under the same terms, the result for `Oc1ccc([C@@H]2CNCc3sccc32)cc1O` reads 15.8 µM (inconclusive).
